From article PMC10600239, “Selective MCL-1 inhibitor ABBV-467 is efficacious in tumor models but is associated with cardiac troponin increases in patients” (Communications Medicine, 2023)
Several values for one entry are separate records, joined by “and”; a condition that tells them apart may be missing. Identical values can stand only once.

Legend:
H929 cells = assay: Caspase-3/7 activation, Δψm and annexin-V positivity by flow cytometry; type: cell-based, human; parameters: MMP / H929 zVAD Fig 2C: unit not given here; conditions: for Caspase-3/-7 Activation / MMP / H929 zVAD Fig 2C: H929; for Caspase-3/-7 Activation: Fig 2A; for MMP: Fig 2B
Protocol: H929 cells cultured in RPMI 1640 medium (Sigma, St. Louis, MO) supplemented with 10% fetal bovine serum (Gibco, Grand Island, NY) were pretreated with a pan-caspase inhibitor z-VAD-fmk (MP Biomedicals, Solon, OH; 50 µM) for 1 h before the addition of ABBV-467 for a further 6 h. Cells were then washed twice with Dulbecco’s phosphate-buffered saline and resuspended in staining buffer for determination of caspase-3/7 activation, Δψm, and annexin-V positivity using the Intellicyt MultiCyt 4-Plex Kit and high-content flow cytometry (Intellicyt, Albuquerque, NM).

[1] = target: off-target receptors, ion channels, and transporters (Homo sapiens, UniProt O14965); assay: Off-target profiling (Supplementary Data 1); conditions: TR-FRET Kinome; Invitrogen A-1169612.6 .006(Subs Conc)
[2] = target: off-target receptors, ion channels, and transporters (Homo sapiens, UniProt O94806); assay: Off-target profiling (Supplementary Data 1); conditions: TR-FRET Kinome; Invitrogen A-1169612.6 .2(Subs Conc)
Chain of off-target receptors, ion channels, and transporters (Homo sapiens, UniProt O94806) (O94806 whole entry): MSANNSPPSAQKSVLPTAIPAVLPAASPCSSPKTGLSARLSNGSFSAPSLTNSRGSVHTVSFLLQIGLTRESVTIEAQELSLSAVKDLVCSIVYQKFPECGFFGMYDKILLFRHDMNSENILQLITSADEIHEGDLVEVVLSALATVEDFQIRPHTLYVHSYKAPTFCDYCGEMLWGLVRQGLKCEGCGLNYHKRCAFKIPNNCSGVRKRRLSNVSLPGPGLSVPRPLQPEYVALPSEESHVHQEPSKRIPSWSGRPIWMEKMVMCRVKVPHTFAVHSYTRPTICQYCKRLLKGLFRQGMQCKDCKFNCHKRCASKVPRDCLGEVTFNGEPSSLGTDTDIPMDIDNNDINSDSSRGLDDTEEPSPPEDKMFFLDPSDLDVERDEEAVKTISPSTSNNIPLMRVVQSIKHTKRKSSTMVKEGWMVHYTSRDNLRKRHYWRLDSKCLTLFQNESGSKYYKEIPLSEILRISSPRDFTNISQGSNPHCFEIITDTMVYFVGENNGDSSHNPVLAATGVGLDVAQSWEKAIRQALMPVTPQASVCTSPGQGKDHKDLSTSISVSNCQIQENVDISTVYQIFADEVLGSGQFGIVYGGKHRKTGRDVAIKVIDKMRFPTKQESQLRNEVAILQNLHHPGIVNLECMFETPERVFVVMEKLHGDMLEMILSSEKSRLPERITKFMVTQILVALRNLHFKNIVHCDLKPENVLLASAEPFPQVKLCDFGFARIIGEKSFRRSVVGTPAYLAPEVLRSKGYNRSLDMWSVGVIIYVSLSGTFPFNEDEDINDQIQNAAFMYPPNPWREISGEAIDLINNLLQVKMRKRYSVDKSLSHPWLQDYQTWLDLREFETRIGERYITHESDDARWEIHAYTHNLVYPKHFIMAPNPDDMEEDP

[3] = target: off-target receptors, ion channels, and transporters (Homo sapiens, UniProt P05771); assay: Off-target profiling (Supplementary Data 1); conditions: TR-FRET Kinome, SignalChem A-1167389.7 .05(Subs Conc)
Chain of off-target receptors, ion channels, and transporters (Homo sapiens, UniProt P05771) (P05771 2-671): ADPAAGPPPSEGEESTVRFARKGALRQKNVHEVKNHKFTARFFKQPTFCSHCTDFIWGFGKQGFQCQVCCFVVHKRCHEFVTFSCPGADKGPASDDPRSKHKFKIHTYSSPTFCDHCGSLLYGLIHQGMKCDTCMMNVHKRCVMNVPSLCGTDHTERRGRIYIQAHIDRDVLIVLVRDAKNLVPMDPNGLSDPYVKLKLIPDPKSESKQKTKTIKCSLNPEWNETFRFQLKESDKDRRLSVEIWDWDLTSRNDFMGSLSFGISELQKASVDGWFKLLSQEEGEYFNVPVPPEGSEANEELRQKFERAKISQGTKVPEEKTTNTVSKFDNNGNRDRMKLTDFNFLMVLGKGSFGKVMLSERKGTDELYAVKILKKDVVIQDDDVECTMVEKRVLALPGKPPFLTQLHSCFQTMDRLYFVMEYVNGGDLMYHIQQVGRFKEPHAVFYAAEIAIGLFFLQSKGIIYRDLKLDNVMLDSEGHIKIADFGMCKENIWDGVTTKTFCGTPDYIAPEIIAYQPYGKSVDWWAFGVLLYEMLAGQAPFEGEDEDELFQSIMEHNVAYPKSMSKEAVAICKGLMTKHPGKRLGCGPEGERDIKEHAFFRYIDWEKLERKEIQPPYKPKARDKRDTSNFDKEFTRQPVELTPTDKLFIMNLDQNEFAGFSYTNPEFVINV

[4] = target: off-target receptors, ion channels, and transporters (Homo sapiens, UniProt P08908); assay: Off-target profiling (Supplementary Data 1)
Chain of off-target receptors, ion channels, and transporters (Homo sapiens, UniProt P08908) (P08908 whole entry): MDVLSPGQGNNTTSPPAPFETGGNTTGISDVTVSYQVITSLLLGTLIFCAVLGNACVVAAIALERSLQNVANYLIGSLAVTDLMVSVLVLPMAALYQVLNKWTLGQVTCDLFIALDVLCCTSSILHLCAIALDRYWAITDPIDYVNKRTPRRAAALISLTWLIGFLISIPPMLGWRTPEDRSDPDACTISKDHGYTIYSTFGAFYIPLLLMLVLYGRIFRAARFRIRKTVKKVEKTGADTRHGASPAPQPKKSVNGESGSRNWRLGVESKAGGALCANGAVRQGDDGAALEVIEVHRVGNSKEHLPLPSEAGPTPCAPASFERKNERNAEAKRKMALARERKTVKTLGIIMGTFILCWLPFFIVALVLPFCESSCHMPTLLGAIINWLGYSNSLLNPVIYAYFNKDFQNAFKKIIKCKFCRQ

[5] = target: off-target receptors, ion channels, and transporters (Homo sapiens, UniProt P24530); assay: Off-target profiling (Supplementary Data 1)
Chain of off-target receptors, ion channels, and transporters (Homo sapiens, UniProt P24530) (P24530 27-442): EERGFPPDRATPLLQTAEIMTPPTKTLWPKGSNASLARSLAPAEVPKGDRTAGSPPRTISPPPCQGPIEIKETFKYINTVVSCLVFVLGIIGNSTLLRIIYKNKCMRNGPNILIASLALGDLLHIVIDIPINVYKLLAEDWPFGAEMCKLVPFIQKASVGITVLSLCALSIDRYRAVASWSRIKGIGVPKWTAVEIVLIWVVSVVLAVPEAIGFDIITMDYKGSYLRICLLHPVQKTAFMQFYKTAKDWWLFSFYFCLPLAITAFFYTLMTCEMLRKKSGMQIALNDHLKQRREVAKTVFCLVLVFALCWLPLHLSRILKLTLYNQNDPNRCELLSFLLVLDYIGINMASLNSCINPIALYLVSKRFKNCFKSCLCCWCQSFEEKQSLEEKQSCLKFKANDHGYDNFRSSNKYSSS

[6] = target: off-target receptors, ion channels, and transporters (Homo sapiens, UniProt P24941); assay: Off-target profiling (Supplementary Data 1); conditions: TR-FRET Kinome; Invitrogen A-1233106.2 .025(Subs Conc)
[7] = target: off-target receptors, ion channels, and transporters (Homo sapiens, UniProt P28223); assay: Off-target profiling (Supplementary Data 1)
Chain of off-target receptors, ion channels, and transporters (Homo sapiens, UniProt P28223) (P28223 whole entry): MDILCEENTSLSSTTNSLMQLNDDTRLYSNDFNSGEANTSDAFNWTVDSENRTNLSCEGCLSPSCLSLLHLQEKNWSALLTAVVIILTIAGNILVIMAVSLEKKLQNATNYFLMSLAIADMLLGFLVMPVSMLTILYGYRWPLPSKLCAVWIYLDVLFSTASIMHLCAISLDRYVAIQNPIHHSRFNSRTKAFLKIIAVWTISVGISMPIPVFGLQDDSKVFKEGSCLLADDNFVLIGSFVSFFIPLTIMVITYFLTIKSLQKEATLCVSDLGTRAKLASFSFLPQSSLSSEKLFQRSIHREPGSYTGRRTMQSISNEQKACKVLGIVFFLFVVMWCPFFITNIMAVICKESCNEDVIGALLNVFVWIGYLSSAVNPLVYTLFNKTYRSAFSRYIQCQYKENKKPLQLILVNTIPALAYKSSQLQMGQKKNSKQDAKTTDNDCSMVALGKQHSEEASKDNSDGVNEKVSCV

[8] = target: off-target receptors, ion channels, and transporters (Homo sapiens, UniProt P30411); assay: Off-target profiling (Supplementary Data 1)
Chain of off-target receptors, ion channels, and transporters (Homo sapiens, UniProt P30411) (P30411 whole entry): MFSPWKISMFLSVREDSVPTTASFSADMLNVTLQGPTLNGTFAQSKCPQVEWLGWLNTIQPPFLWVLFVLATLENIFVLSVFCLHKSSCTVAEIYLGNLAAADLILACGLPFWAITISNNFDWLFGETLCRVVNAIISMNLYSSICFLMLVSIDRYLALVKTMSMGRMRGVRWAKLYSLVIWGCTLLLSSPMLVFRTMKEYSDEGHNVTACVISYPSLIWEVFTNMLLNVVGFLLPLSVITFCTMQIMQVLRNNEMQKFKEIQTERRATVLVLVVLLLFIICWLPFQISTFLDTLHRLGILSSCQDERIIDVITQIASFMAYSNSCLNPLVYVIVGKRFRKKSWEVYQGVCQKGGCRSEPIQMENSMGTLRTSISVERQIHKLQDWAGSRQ

[9] = target: off-target receptors, ion channels, and transporters (Homo sapiens, UniProt P35367); assay: Off-target profiling (Supplementary Data 1)
Chain of off-target receptors, ion channels, and transporters (Homo sapiens, UniProt P35367) (P35367 whole entry): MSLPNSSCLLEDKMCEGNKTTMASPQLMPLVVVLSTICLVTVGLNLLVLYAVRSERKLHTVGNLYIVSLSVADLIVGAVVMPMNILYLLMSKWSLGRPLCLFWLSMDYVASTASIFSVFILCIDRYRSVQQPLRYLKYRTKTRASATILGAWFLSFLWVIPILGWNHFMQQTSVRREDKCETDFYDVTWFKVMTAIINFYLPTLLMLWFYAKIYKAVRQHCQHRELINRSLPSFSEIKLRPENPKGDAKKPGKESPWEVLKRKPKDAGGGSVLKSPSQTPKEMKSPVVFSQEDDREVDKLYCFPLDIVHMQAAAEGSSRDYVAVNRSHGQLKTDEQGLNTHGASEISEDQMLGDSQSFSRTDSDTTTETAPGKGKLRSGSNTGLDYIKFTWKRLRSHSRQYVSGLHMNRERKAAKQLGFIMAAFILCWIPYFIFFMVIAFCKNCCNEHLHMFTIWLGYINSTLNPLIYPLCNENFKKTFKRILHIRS

[10] = target: off-target receptors, ion channels, and transporters (Homo sapiens, UniProt P37231); assay: Off-target profiling (Supplementary Data 1); conditions: Bioprofiling 6pt Ag
Chain of off-target receptors, ion channels, and transporters (Homo sapiens, UniProt P37231) (P37231 whole entry): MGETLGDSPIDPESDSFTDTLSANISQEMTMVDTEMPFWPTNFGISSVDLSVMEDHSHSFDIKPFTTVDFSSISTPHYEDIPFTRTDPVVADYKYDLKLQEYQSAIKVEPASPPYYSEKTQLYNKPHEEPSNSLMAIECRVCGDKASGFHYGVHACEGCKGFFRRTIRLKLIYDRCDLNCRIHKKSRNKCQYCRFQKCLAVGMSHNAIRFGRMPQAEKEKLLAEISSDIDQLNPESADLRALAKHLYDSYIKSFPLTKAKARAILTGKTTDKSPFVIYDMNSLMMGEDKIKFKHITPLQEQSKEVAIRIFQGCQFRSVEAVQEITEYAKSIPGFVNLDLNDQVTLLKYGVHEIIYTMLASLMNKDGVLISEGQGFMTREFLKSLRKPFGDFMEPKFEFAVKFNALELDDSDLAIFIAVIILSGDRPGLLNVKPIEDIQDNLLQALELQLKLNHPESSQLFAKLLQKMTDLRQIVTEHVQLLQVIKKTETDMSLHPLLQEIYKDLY

[11] = target: off-target receptors, ion channels, and transporters (Homo sapiens, UniProt P41595); assay: Off-target profiling (Supplementary Data 1)
Chain of off-target receptors, ion channels, and transporters (Homo sapiens, UniProt P41595) (P41595 whole entry): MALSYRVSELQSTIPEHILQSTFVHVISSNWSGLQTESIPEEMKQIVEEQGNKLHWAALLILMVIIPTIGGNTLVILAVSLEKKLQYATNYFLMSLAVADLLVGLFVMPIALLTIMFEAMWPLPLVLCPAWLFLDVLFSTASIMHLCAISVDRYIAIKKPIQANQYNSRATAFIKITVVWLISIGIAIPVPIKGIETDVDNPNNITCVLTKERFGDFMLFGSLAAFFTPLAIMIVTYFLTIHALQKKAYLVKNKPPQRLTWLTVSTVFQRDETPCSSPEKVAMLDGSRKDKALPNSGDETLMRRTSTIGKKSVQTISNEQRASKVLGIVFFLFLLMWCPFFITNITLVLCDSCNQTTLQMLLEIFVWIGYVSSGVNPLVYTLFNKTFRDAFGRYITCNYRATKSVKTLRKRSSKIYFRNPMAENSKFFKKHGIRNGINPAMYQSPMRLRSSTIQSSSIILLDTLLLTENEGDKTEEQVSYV

[12] = target: off-target receptors, ion channels, and transporters (Homo sapiens, UniProt P42681); assay: Off-target profiling (Supplementary Data 1); conditions: TR-FRET Kinome; SignalChem A-1224127.6 .005(Subs Conc)
[13] = target: off-target receptors, ion channels, and transporters (Homo sapiens, UniProt P45983); assay: Off-target profiling (Supplementary Data 1); conditions: TR-FRET Kinome; Invitrogen A-1196442.2 .1(Subs Conc)
[14] = target: off-target receptors, ion channels, and transporters (Homo sapiens, UniProt P49841); assay: Off-target profiling (Supplementary Data 1); conditions: TR-FRET Kinome; Invitrogen A-1169612.6 .006(Subs Conc)
[15] = target: off-target receptors, ion channels, and transporters (Homo sapiens, UniProt P51955); assay: Off-target profiling (Supplementary Data 1); conditions: TR-FRET Kinome; Invitrogen A-1196581.2 .025(Subs Conc)
[16] = target: off-target receptors, ion channels, and transporters (Homo sapiens, UniProt Q16539); assay: Off-target profiling (Supplementary Data 1); conditions: TR-FRET Kinome; Invitrogen IVGN Tracer 199 .05(Subs Conc)
[17] = Bioprofiling 6pt Antag, Serotonin (5-HT)

How did the Caspase-3/-7 Activation (H929 cells; Log [ABBV-467] uM 0.045757) turn out when `Cc1c(Cl)c2c(Cl)c(C)c1-c1c(-c3ccc(F)cc3)sc3ncnc(c13)O[C@@H](C(=O)O)Cc1cc(ccc1OCc1ccnc(-c3ccc(OC[C@H]4COCCO4)cc3)n1)OC[C@@H](CN1CCN(C)CC1)O2` [ABBV-467] was run?
The Caspase-3/-7 Activation was 53.8099 and 53.0567 and 99.0546 and 98.9774.

What about the Caspase-3/-7 Activation (H929 cells; Log [ABBV-467] uM 0.522879) of the same compound?
Its Caspase-3/-7 Activation is 56.0913 and 57.1822 and 99.1897 and 99.0858.

And the Caspase-3/-7 Activation (H929 cells; Log [ABBV-467] uM 1)?
Its Caspase-3/-7 Activation is 64.5099 and 63.3101 and 99.1237 and 99.059.

What about the MMP (H929 cells; Log [ABBV-467] uM 1) of the same compound?
Its MMP is 45.9293.

What about the Caspase-3/-7 Activation (H929 cells; Log [ABBV-467] uM -0.43136) of the same compound?
Its Caspase-3/-7 Activation is 50.714 and 51.6373 and 98.7601 and 98.6341.

What about the MMP (H929 cells; Log [ABBV-467] uM -0.90849) of the same compound?
Its MMP is 38.9227.

And the Caspase-3/-7 Activation (H929 cells; Log [ABBV-467] uM -1.86273)?
Its Caspase-3/-7 Activation is 33.5112 and 33.8695 and 61.3327 and 57.2365.

And the MMP (H929 cells; Log [ABBV-467] uM -1.86273)?
Its MMP is 31.9106 and 36.0956 and 42.4956 and 39.7476.

And the Caspase-3/-7 Activation (H929 cells; Log [ABBV-467] uM -2.33985)?
Its Caspase-3/-7 Activation is 30.5735 and 30.5502 and 33.1767 and 32.117.

What about the MMP (H929 cells; Log [ABBV-467] uM -2.81697) of the same compound?
The MMP was 29.9048.

And the “H929 zVAD Fig 2C” value (H929 cells; Vehicle, Log [ABBV-467] uM 0.522879)?
Its value is 78.4582 and 79.5333 and 93.9539 and 93.9739.

And the “H929 zVAD Fig 2C” value (H929 cells; Vehicle, Log [ABBV-467] uM 1)?
Its value is 82.31 and 82.4987 and 93.6098 and 94.0208.

What about the “H929 zVAD Fig 2C” value (H929 cells; Vehicle, Log [ABBV-467] uM -0.90849) of the same compound?
Its value is 61.8581 and 57.4223 and 88.7815 and 89.1451.

And the “H929 zVAD Fig 2C” value (H929 cells; Vehicle, Log [ABBV-467] uM -1.86273)?
Its value is 33.1301 and 34.5804 and 48.8387 and 44.3698.

What about the “H929 zVAD Fig 2C” value (H929 cells; Vehicle, Log [ABBV-467] uM -2.81697) of the same compound?
Its value is 10.2236.

What about the “H929 zVAD Fig 2C” value (H929 cells; z-VAD-fmk, Log [ABBV-467] uM 0.045757) of the same compound?
The value was 25.2697.

And the “H929 zVAD Fig 2C” value (H929 cells; z-VAD-fmk, Log [ABBV-467] uM 1)?
The value was 9.553 and 7.075.

What about the “H929 zVAD Fig 2C” value (H929 cells; z-VAD-fmk, Log [ABBV-467] uM -0.43136) of the same compound?
Its value is 25.945.

And the “H929 zVAD Fig 2C” value (H929 cells; z-VAD-fmk, Log [ABBV-467] uM -1.38561)?
The value was 25.2659.

And the “H929 zVAD Fig 2C” value (H929 cells; z-VAD-fmk, Log [ABBV-467] uM -1.86273)?
The value was 25.2352.

What about the “H929 zVAD Fig 2C” value (H929 cells; z-VAD-fmk, Log [ABBV-467] uM -2.33985) of the same compound?
Its value is 25.2036.

And the “hallmarks of apoptosis induced” value (H929 cells; H929 cells, 6 h)?
The value was “dose-dependent loss in mitochondrial membrane potential, caspase-3/7 activation, and phosphatidyl serine externalization”.

And the “effect of pan-caspase inhibition with z-VAD-fmk on induced apoptosis” value (H929 cells; z-VAD-fmk 50 µM)?
The value was “abrogated”.

What about the Aurora2 - IC50 [1] of the same compound?
Its Aurora2 - IC50 is over 10 µM.

What about the Prkcn - IC50 [2] of the same compound?
Its Prkcn - IC50 is over 10 µM.

What about the IC50 ([3]; read-out: PKCbeta2 - IC50) of the same compound?
Its IC50 is over 10 µM.

And the Ki ([3]; read-out: PKCbeta2 - Ki)?
The Ki was over 3.9 µM.

And the 5-HT1A CHO Human - EC50 ([4]; Bioprofiling 6pt Ag)?
Its 5-HT1A CHO Human - EC50 is over 10 µM.

And the 5-HT1A CHO Human - IC50 ([4]; Bioprofiling 6pt Antag, 5-Carboxytryptamine (5-CT))?
The 5-HT1A CHO Human - IC50 was over 10 µM.

And the ETB CHO Human - EC50 ([5]; Bioprofiling 6pt Ag)?
Its ETB CHO Human - EC50 is over 10 µM.

What about the ETB CHO Human - IC50 ([5]; Bioprofiling 6pt Antag, BQ-3020) of the same compound?
Its ETB CHO Human - IC50 is over 10 µM.

And the cdk2 - IC50 [6]?
The cdk2 - IC50 was over 10 µM.

And the 5-HT2A CHO Human - EC50 ([7]; Bioprofiling 6pt Ag)?
The 5-HT2A CHO Human - EC50 was over 10 µM.

What about the 5-HT2A CHO Human - IC50 [7, 17] of the same compound?
Its 5-HT2A CHO Human - IC50 is over 10 µM.

And the B2 CHO Human - EC50 ([8]; Bioprofiling 6pt Ag)?
The B2 CHO Human - EC50 was over 10 µM.

And the “B2 CHO Human - IC50” value ([8]; Bioprofiling 6pt Antag, Bradykinin)?
Its value is over 10.00 µM.

What about the H1 CHO Human - EC50 ([9]; Bioprofiling 6pt Ag) of the same compound?
The H1 CHO Human - EC50 was over 10 µM.

And the H1 CHO Human - IC50 ([9]; Bioprofiling 6pt Antag, Histamine)?
The H1 CHO Human - IC50 was over 10 µM.

And the PPARgamma Human - EC50 [10]?
The PPARgamma Human - EC50 was over 10 µM.

What about the 5-HT2B CHO Human - EC50 ([11]; Bioprofiling 6pt Ag) of the same compound?
The 5-HT2B CHO Human - EC50 was over 10 µM.

And the 5-HT2B CHO Human - IC50 [11, 17]?
Its 5-HT2B CHO Human - IC50 is over 10 µM.

And the 5-HT2B Human (Functional - Agonist Effect) - EC50 ([11]; CEREP)?
Its 5-HT2B Human (Functional - Agonist Effect) - EC50 is over 100 µM.

And the “5-HT2B Human (Functional - Antagonist Effect) - IC50” value ([11]; CEREP)?
Its value is over 100.00 µM.

What about the “5-HT2B Human (Functional - Antagonist Effect) - Kb” value ([11]; CEREP) of the same compound?
The value was over 15.30 µM.

What about the TXK - IC50 [12] of the same compound?
Its TXK - IC50 is over 10 µM.

And the JNK1 - IC50 [13]?
Its JNK1 - IC50 is over 10 µM.

What about the Gsk3b - IC50 [14] of the same compound?
Its Gsk3b - IC50 is 9.9 µM.

And the Nek2 - IC50 [15]?
Its Nek2 - IC50 is over 10 µM.

What about the p38 alpha - IC50 [16] of the same compound?
Its p38 alpha - IC50 is over 10 µM.
